Values after ≈ are worked out from the molar mass of the structure shown.
Columns and labels:
COX-2 = biological target: T1, COX-2 (Mus musculus, UniProt Q05769); test: Evaluation of COX-2 activity: PGE2 formation in aspirin-treated, LPS-stimulated mouse peritoneal macrophages; format: cell-based
T1 sequence (Q05769 18-604): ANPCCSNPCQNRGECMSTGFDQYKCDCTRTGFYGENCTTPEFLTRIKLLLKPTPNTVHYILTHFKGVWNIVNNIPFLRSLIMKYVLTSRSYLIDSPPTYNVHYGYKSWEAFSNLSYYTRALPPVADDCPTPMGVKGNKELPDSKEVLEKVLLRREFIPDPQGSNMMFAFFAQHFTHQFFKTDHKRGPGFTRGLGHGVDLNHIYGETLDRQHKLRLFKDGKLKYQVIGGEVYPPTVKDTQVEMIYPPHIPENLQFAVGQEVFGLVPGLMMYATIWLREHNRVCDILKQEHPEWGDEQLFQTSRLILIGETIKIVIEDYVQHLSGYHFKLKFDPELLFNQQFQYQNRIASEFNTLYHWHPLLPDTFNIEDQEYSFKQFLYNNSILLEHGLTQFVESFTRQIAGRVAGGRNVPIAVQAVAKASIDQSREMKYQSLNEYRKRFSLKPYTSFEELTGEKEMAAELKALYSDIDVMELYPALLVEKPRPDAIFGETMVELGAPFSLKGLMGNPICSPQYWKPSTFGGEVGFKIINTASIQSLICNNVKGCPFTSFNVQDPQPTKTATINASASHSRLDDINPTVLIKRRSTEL
Method in brief: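 PGE2 output, quantified by radio- or enzyme-immunoassay, was read after 10 min exposure of cells to compound with 10 μM arachidonic acid. Cells were mouse peritoneal macrophages, COX-1 knocked out with 500 μM aspirin and COX-2 induced by 10 μg/ml LPS over 16 h. IC50 derived from 4–5 concentrations.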

COX-1 = biological target: T2, COX-1 (Mus musculus, UniProt P22437); test: Evaluation of COX-1 activity: PGE2 formation in mouse peritoneal macrophages without aspirin and LPS treatment; format: cell-based
T2 sequence (P22437 27-602): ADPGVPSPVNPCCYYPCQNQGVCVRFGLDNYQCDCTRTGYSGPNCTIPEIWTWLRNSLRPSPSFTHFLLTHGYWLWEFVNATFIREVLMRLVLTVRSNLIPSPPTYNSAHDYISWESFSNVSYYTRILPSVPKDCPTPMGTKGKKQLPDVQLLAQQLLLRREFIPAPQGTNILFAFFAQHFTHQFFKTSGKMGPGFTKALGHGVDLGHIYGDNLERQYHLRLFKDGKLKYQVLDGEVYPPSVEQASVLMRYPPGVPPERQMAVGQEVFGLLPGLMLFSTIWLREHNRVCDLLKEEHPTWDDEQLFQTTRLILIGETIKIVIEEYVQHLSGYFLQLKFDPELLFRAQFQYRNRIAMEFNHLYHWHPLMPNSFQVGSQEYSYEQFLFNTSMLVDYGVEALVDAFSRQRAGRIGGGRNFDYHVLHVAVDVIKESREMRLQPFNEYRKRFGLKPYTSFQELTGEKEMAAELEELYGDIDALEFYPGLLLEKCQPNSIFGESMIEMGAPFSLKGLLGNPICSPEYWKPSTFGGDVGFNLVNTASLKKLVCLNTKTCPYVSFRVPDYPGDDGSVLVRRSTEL
Method in brief: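 Peritoneal macrophages from C57BL/6 mice, without aspirin or LPS treatment, were plated at 1×10^6 cells/ml and fixed 2 h at 37 °C. Cells were preincubated 10 min, then given 10 μM arachidonic acid plus compound for 10 min; PGE2 was measured by RIA or EIA. IC50 came from 4–5 concentrations.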

[1] = tested on: male Sprague-Dawley (SD) rats; test: Carrageenan-induced foot edema in rats (CFE); format: in vivo; conditions: oral dose 3 mg/kg body weight, rat, paw volume 3 hours after Carrageenan
Method: An appropriate amount of a compound of this invention suspended in 1% methylcellulose (MC) solution was administered to male Sprague-Dawley (SD) rats weighing 150˜200 g by oral gavage. The volume of the administered vehicle for a compound of this invention was controlled to be smaller than 10 ml/kg body weight of the animal. One hour later, 0.1 ml of 1% Carrageenan saline solution was directly injected into the right paw of the rats to induce edema in the paw. The paw volumes at 0 hour and at 3 hours after the injection of Carrageenan were measured by using a displacement plethysmometer (Ugo Basile, Italy). The paw volumes were used to calculate % inhibition of CFE by an amount of a compound of this invention according to the following equation.
% Inhibition of CFE=(1−Δtreated/Δcontrol)×100
wherein Δtreated=[paw volume at three hours after the Carrageenan injection−paw volume right after Carrageenan injection] for a drug-administered rat, and Δcontrol=[paw volume at three hours after the Carrageenan injection−paw volume right after Carrageenan injection] for a rat without drug administration.
In order to determine the inhibitory activity of a compound of this invention at a dose, usually 5 to 8 animals were used both for drug-treated group and for control group.

male SD rats = test: Antiinflammatory potency by adjuvant arthritis (AA); format: in vivo; conditions: daily oral dose day 14 to day 22, rat
Method: Arthritis was induced in male SD rats weighing 180-200 g by subcutaneous injection of Mycobacterium butyricum mixed in 0.1 ml of incomplete Freund's adjuvanat into the base of the tail. The foot volumes were measured using a displacement plethysomometer 14 days after the injection of the adjuvant. Animals with paw volumes greater than the normal paw volumes (without the adjuvant treatment) by 0.37 ml were selected, and then randomized. A designated daily dose of a compound of this invention, which was suspended in 1% aqueous methylcellulose solution, was administered to the randomized rats with arthritis by oral gavage daily once beginning on day 14 after the injection of the adjuvant. The administration of the compound continued till day 22 after the injection of the adjuvant, and the paw volumes were measured on daily basis using a displacement plethysmometer.
% Inhibition of AA=(1−Δtreated/Δcontrol)×100
wherein Δtreated=[(paw volume at day 22)/(paw volume at day 14)−1] for a drug-administered rat, and Δcontrol=[(paw volume at day 22)/(paw volume at day 14)−1] for a rat without drug administration.
ED50 value was determined b a dose-response curve for each compound.

Compound | IC50, μg/ml COX-2 (COX-2) [µg/mL] | IC50, μg/ml COX-1 (COX-1) [µg/mL] | melting point [°C] | IC50 (COX-2; read-out: IC50, μg/ml COX-2 (converted)) [µM] | IC50 (COX-1; read-out: IC50, μg/ml COX-1 (converted)) [µM] | % Inhibition (CFE) [1] [%] | Adjuvant Arthritis ED50 (male SD rats) [mg/kg body weight]
CC1(C)OC(c2ccc(S(N)(=O)=O)cc2)=C(c2cc(F)ccc2F)C1=O [Example 157] | 0.038 (≈ 0.1 µM) | 5.15 (≈ 13.6 µM) | 182 to 183 | – | – | 41 | –
CCC1(C)OC(c2ccc(S(C)(=O)=O)cc2)=C(c2cccc(Cl)c2)C1=O (stereo not shown) [Example 195] | – | – | 94 to 95 | 0.0767 | 12.8 | 28 | –
5-{(aminosulfonyl)-3-fluorophenyl}-4-(3,5-difluorophenyl)-2,2-dimethyl-3(2H)-furanone [Example 312] | 0.02 | 100 | – | – | – | 31 | –
CC1(C)OC(c2ccc(S(C)(=O)=O)cc2)=C(c2cccc(C(F)(F)F)c2)C1=O [Example 14] | – | – | 115 to 116 | – | – | 32 | 0.06
C[S+]([O-])c1ccc(C2=C(c3cc(F)cc(F)c3)C(=O)C(C)(C)O2)cc1 (stereo not shown) [Example 177, 4-(3,5-Difluorophenyl)-2,2-dimethyl-5-{4-(methylsulfinyl)phenyl}-3(2H)-furanone] | 5 (≈ 13.8 µM) | 30 (≈ 82.8 µM) | 133 to 134 | – | – | 37 | –
CCSc1ccc(C2=C(c3ccc(S(N)(=O)=O)cc3)OC(C)(C)C2=O)cc1 [Example 146] | 0.0014 (≈ 0.00347 µM) | 0.83 (≈ 2.06 µM) | 185 | – | – | 24 | –
Cn1cc(C2=C(c3ccc(S(C)(=O)=O)cc3)OC(C)(C)C2=O)cn1 [Example 20, 2,2-Dimethyl-4-{4-(1-N-methylpyrazolyl)}-5-{4-(methylsulfonyl)phenyl)-3(2H)-furanone] | – | – | 114 to 115 | – | – | 36 | –
C[S+]([O-])c1ccc(C2=C(c3cccc(F)c3)C(=O)C(C)(C)O2)cc1 (stereo not shown) [Example 176, 2,2-dimethyl-4-(3-fluorophenyl)-5-{4-(methylsulfinyl)phenyl}-3(2H)-furanone] | 1 (≈ 2.9 µM) | – | 143 to 144 | – | – | 23 | –
CC1(C)OC(c2ccc(S(N)(=O)=O)cc2)=C(c2cccc(C(F)(F)F)c2)C1=O [Example 23, 5-{4-(Aminosulfonyl)phenyl}-2,2-dimethyl-4-{3-(trifluoromethyl)phenyl}-3(2H)-furanone] | – | – | – | – | – | 33 | –
CC1(C)OC(c2ccc(S(N)(=O)=O)cc2)=C(c2ccccc2F)C1=O [Example 155] | 0.016 (≈ 0.0443 µM) | 1.8 (≈ 4.98 µM) | 188 to 189 | – | – | 35 | –
CC(C)c1ccc(C2=C(c3ccc(S(C)(=O)=O)cc3)OC(C)(C)C2=O)cc1 [Example 84] | 0.03 (≈ 0.078 µM) | 3 (≈ 7.8 µM) | 121 to 123 | – | – | 25 | –
Cn1cc(C2=C(c3ccc(S(N)(=O)=O)cc3)OC(C)(C)C2=O)cn1 [Example 164] | 0.03 (≈ 0.0864 µM) | 100 (≈ 288 µM) | – | – | – | 29 | –
Cc1cccc(C2=C(c3ccc(S(C)(=O)=O)cc3)OC3(CCCC3)C2=O)c1 [Example 255] | 0.03 (≈ 0.0784 µM) | 3 (≈ 7.84 µM) | 142 to 143 | – | – | 31 | –

More lines, main results first:

IC50, μg/ml COX-2 (COX-2) [µg/mL] | IC50, μg/ml COX-1 (COX-1) [µg/mL] | melting point [°C] | IC50 (COX-2; read-out: IC50, μg/ml COX-2 (converted)) [µM] | IC50 (COX-1; read-out: IC50, μg/ml COX-1 (converted)) [µM] | Compound | % Inhibition (CFE) [1] [%] | Adjuvant Arthritis ED50 (male SD rats) [mg/kg body weight]
0.003 (≈ 0.00791 µM) | 10 (≈ 26.4 µM) | 168 to 170 | – | – | CC1(C)OC(c2ccc(S(N)(=O)=O)cc2F)=C(c2cccc(F)c2)C1=O [Example 333] | 25 | –
0.02 (≈ 0.0507 µM) | 200 (≈ 507 µM) | 163 to 164 | – | – | CC1(C)OC(c2ccc(S(C)(=O)=O)c(Cl)c2)=C(c2cccc(F)c2)C1=O [Example 359] | 28 | –
0.02 (≈ 0.0505 µM) | 50 (≈ 126 µM) | 149 to 150 | – | – | CC1(C)OC(c2ccc(S(N)(=O)=O)c(Cl)c2)=C(c2cccc(F)c2)C1=O [Example 369] | 28 | –
0.03 (≈ 0.0757 µM) | 10 (≈ 25.2 µM) | 158 to 159 | – | – | CC1(C)OC(c2ccc(S(C)(=O)=O)c(F)c2)=C(c2ccc(F)c(F)c2)C1=O [Example 284] | 33 | –
0.05 (≈ 0.132 µM) | 10 (≈ 26.4 µM) | 160 to 161 | – | – | CC1(C)OC(c2ccc(S(C)(=O)=O)c(F)c2)=C(c2ccc(F)cc2)C1=O [Example 276] | 26 | –
0.003 (≈ 0.00755 µM) | 3 (≈ 7.55 µM) | 185 to 187 | – | – | CC1(C)OC(c2ccc(S(N)(=O)=O)cc2F)=C(c2cc(F)cc(F)c2)C1=O [Example 335] | 32 | –
0.03 (≈ 0.0791 µM) | 3 (≈ 7.91 µM) | 190 to 192 | – | – | CC1(C)OC(c2ccc(S(N)(=O)=O)c(F)c2)=C(c2ccc(F)cc2)C1=O [Example 303] | 30 | –
0.03 (≈ 0.0755 µM) | 3 (≈ 7.55 µM) | 199 to 200 | – | – | CC1(C)OC(c2ccc(S(N)(=O)=O)c(F)c2)=C(c2ccc(F)c(F)c2)C1=O [Example 311] | 30 | –
0.03 (≈ 0.0791 µM) | 5 (≈ 13.2 µM) | 178 to 179 | – | – | CC1(C)OC(c2ccc(S(N)(=O)=O)c(F)c2)=C(c2cccc(F)c2)C1=O [Example 302] | 27 | –
0.05 (≈ 0.127 µM) | 30 (≈ 76 µM) | 108 to 109 | – | – | CC1(C)OC(c2ccc(S(C)(=O)=O)c(F)c2)=C(c2cccc(Cl)c2)C1=O [Example 278] | 27 | –
0.03 (≈ 0.0683 µM) | 50 (≈ 114 µM) | 133 to 134 | – | – | CC1(C)OC(c2ccc(S(C)(=O)=O)c(Br)c2)=C(c2cccc(F)c2)C1=O [Example 343] | 25 | –
0.009 (≈ 0.0218 µM) | 4 (≈ 9.69 µM) | 150 to 151 | – | – | CC1(C)OC(c2ccc(S(C)(=O)=O)c(Cl)c2)=C(c2ccc(F)c(F)c2)C1=O [Example 361] | 41 | –

— patent US6492416B1, “4,5-diaryl-3(2H)-furanone derivatives as cyclooxygenase-2 inhibitors” (Pacific Corporation, priority 1999, dated 2002)
